Measurements published in patent publication US20220289732A1, “HETEROCYCLIC WDR5 INHIBITORS AS ANTI-CANCER COMPOUNDS” (NOVARTIS AG, priority 2019, published 2022).

Key:
WDR5 = WDR5 (Homo sapiens, UniProt P61964); assay: WDR5 HTRF binding assay; conditions: read-out: (a) WDR5 HTRF Pep Val v.1[Inhibitor/IC50]Qualified AC50
Method in brief: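 In this HTRF displacement format, biotinylated MLL1 WIN peptide (3762-3773, 20 nM) binds WDR5 (6 nM) in 25 mM Hepes pH 7.5 with 100 mM NaCl, 2 mM DTT and 0.1% BSA for 20 min at rt. Detection used streptavidin-APC/anti-His-Eu for 1 hr. IC50 came from dose-response fits of normalized signal; 15 nM biotin-PEG-His peptide served as counter assay.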

[1] = molecular target: wild type MLL1 four-member complex (MLL1-4C) (Homo sapiens, UniProt P61964); assay: MLL1 LC-MS assay (SAH production); type: biochemical; conditions: read-out: (b) MLL LCMS Peptide Val.v.1 Qualified AC50
Method in brief: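 SAH formation, measured by LC-MS/MS after a TFA quench containing d4-SAH, was normalised to no-compound and no-enzyme controls and fitted to a dose-response curve for IC50. Reactions ran 120 min at rt (pH 8.0 Tris buffer) with final 30 nM MLL1 four-member complex, 2.5 μM SAM and 10 μM biotinylated H3[1-21] peptide, after a 20-min enzyme/SAM-compound preincubation.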

MV4-11 cells = assay: MV4-11 6-day cell growth CTG (CellTiter-Glo) assay; type: cell-based; conditions: Homo sapiens, MV4-11, 144 h, 6 days, read-out: (c) MLL/WDR5 cell proliferation assay//MLL/WDR5 proliferation MV4:11 Qualified AC50
Method in brief: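 IC50 comes from a dose-response fit of % inhibition relative to DMSO controls, with viable cells measured by CellTiter-Glo luminescence. Compounds were tested over 12 points (1:3, starting at 50 μM final) on MV4-11 cells plated at 300/well and grown 6 days.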

| IC50 (WDR5) | AC50 [1] | Compound | AC50 (MV4-11 cells) |
| --- | --- | --- | --- |
| 0.01 to 1 µM | 0.01 to 1 µM | CNc1nccn1Cc1cc(CN(C)CC(F)(F)F)c2c(c1)C(=O)N([C@@H](C)c1cc(OC)c(F)cn1)CC2 [Example 47, (S)-2-(1-(5-fluoro-4-methoxypyridin-2-yl)ethyl)-5-((methyl(2,2,2-trifluoroethyl)amino)methyl)-7-((2-(methylamino)-1H-imidazol-1-yl)methyl)-3,4-dihydroisoquinolin-1(2H)-one] | 0.01 to 1 µM |
| 0.01 to 1 µM | 0.01 to 1 µM | CNc1nccn1Cc1cc(CN2CC(F)(F)C2)c2c(c1)C(=O)N([C@@H](C)c1cc(OC)c(F)cn1)CC2 [Example 48, (S)-5-((3,3-difluoroazetidin-1-yl)methyl)-2-(1-(5-fluoro-4-methoxypyridin-2-yl)ethyl)-7-((2-(methylamino)-1H-imidazol-1-yl)methyl)-3,4-dihydroisoquinolin-1(2H)-one] | 0.01 to 1 µM |
| 0.01 to 1 µM | 0.01 to 1 µM | CNc1nccn1Cc1cc(CN(C)CCF)c2c(c1)C(=O)N([C@@H](C)c1cc(OC)c(F)cn1)CC2 [Example 49, (S)-2-(1-(5-fluoro-4-methoxypyridin-2-yl)ethyl)-5-(((2-fluoroethyl)(methyl)amino)methyl)-7-((2-(methylamino)-1H-imidazol-1-yl)methyl)-3,4-dihydroisoquinolin-1(2H)-one] | 0.01 to 1 µM |
| 0.01 to 1 µM | 0.01 to 1 µM | CCOc1cc([C@H](C)N2CCc3c(CN(C)C)cc(Cn4ccnc4NC)cc3C2=O)ncc1C#N [Example 50, (S)-6-(1-(5-((dimethylamino)methyl)-7-((2-(methylamino)-1H-imidazol-1-yl)methyl)-1-oxo-3,4-dihydroisoquinolin-2(1H)-yl)ethyl)-4-ethoxynicotinonitrile] | 0.01 to 1 µM |
| < 0.01 µM | 0.01 to 1 µM | CNc1nccn1Cc1cc2c(c(-c3cc(CO)cnc3Cl)c1)CCN(Cc1cccc(OC)c1)C2=O [Example 52, 5-(2-chloro-5-(hydroxymethyl)pyridin-3-yl)-2-(3-methoxybenzyl)-7-((2-(methylamino)-1H-imidazol-1-yl)methyl)-3,4-dihydroisoquinolin-1(2H)-one] | 0.01 to 1 µM |
| 0.01 to 1 µM | 0.01 to 1 µM | CNc1nccn1Cc1cc2c(c(-c3cc(CO)cnc3Cl)c1)CCN(Cc1ccc(F)c(OC)c1)C2=O [Example 53, 5-(2-chloro-5-(hydroxymethyl)pyridin-3-yl)-2-(4-fluoro-3-methoxybenzyl)-7-((2-(methylamino)-1H-imidazol-1-yl)methyl)-3,4-dihydroisoquinolin-1(2H)-one] | 0.01 to 1 µM |
| 0.01 to 1 µM | 0.01 to 1 µM | CNc1nccn1Cc1cc2c(c(-c3cn(C)nc3C(F)(F)F)c1)CCN(Cc1ccc(F)c(OC)c1)C2=O [Example 54, 2-(4-fluoro-3-methoxybenzyl)-5-(1-methyl-3-(trifluoromethyl)-1H-pyrazol-4-yl)-7-((2-(methylamino)-1H-imidazol-1-yl)methyl)-3,4-dihydroisoquinolin-1(2H)-one] | 0.01 to 1 µM |
| 0.01 to 1 µM | 0.01 to 1 µM | CNc1nccn1Cc1cc2c(c(-c3c[nH]nc3C)c1)CCN(Cc1ccc(F)c(OC)c1)C2=O [Example 55, 2-(4-fluoro-3-methoxybenzyl)-5-(3-methyl-1H-pyrazol-4-yl)-7-((2-(methylamino)-1H-imidazol-1-yl)methyl)-3,4-dihydroisoquinolin-1(2H)-one] | 0.01 to 1 µM |
| 0.01 to 1 µM | 0.01 to 1 µM | CNc1nccn1Cc1cc2c(c(-c3cc(CO)cnc3Cl)c1)CCN([C@@H](C)c1ccc(F)c(OC)c1)C2=O [Example 56, (S)-5-(2-chloro-5-(hydroxymethyl)pyridin-3-yl)-2-(1-(4-fluoro-3-methoxyphenyl)ethyl)-7-((2-(methylamino)-1H-imidazol-1-yl)methyl)-3,4-dihydroisoquinolin-1(2H)-one] | 0.01 to 1 µM |
| 0.01 to 1 µM | 0.01 to 1 µM | CNc1nccn1Cc1cc2c(c(-c3cc(CO)cnc3Cl)c1)CCN([C@H](C)c1ccc(F)c(OC)c1)C2=O [Example 57, (R)-5-(2-chloro-5-(hydroxymethyl)pyridin-3-yl)-2-(1-(4-fluoro-3-methoxyphenyl)ethyl)-7-((2-(methylamino)-1H-imidazol-1-yl)methyl)-3,4-dihydroisoquinolin-1(2H)-one] | 0.01 to 1 µM |
| 0.01 to 1 µM | 0.01 to 1 µM | CNc1nccn1Cc1cc2c(c(-c3cn(C)nc3C)c1)CCN(Cc1ccc(F)c(OC)c1)C2=O [Example 58, 5-(1,3-dimethyl-1H-pyrazol-4-yl)-2-(4-fluoro-3-methoxybenzyl)-7-((2-(methylamino)-1H-imidazol-1-yl)methyl)-3,4-dihydroisoquinolin-1(2H)-one] | 0.01 to 1 µM |
| 0.01 to 1 µM | 0.01 to 1 µM | CNc1nccn1Cc1cc2c(c(-c3cncnc3)c1)CCN([C@@H](C)c1cc(OC)c(F)cn1)C2=O [Example 59, (S)-2-(1-(5-fluoro-4-methoxypyridin-2-yl)ethyl)-7-((2-(methylamino)-1H-imidazol-1-yl)methyl)-5-(pyrimidin-5-yl)-3,4-dihydroisoquinolin-1(2H)-one] | 0.01 to 1 µM |
| 0.01 to 1 µM | 0.01 to 1 µM | CNc1nccn1Cc1cc2c(c(-c3ccnn3C)c1)CCN(Cc1cc(OC)c(F)cn1)C2=O [Example 60, 2-((5-fluoro-4-methoxypyridin-2-yl)methyl)-5-(1-methyl-1H-pyrazol-5-yl)-7-((2-(methylamino)-1H-imidazol-1-yl)methyl)-3,4-dihydroisoquinolin-1(2H)-one] | 0.01 to 1 µM |
| 0.01 to 1 µM | 0.01 to 1 µM | CNc1nccn1Cc1cc2c(c(-c3cc(CO)cnc3Cl)c1)CCN(Cc1cc(OC)c(F)cc1F)C2=O [Example 61, 5-(2-chloro-5-(hydroxymethyl)pyridin-3-yl)-2-(2,4-difluoro-5-methoxybenzyl)-7-((2-(methylamino)-1H-imidazol-1-yl)methyl)-3,4-dihydroisoquinolin-1(2H)-one] | 0.01 to 1 µM |
| 0.01 to 1 µM | 0.01 to 1 µM | CNc1nccn1Cc1cc2c(c(-c3cn(C)nc3C)c1)CCN([C@@H](C)c1cc(OC)c(F)cn1)C2=O [Example 62, (S)-5-(1,3-dimethyl-1H-pyrazol-4-yl)-2-(1-(5-fluoro-4-methoxypyridin-2-yl)ethyl)-7-((2-(methylamino)-1H-imidazol-1-yl)methyl)-3,4-dihydroisoquinolin-1(2H)-one] | 0.01 to 1 µM |
| 0.01 to 1 µM | 0.01 to 1 µM | CNc1nccn1Cc1cc2c(c(-c3ccn[nH]3)c1)CCN([C@@H](C)c1cc(OC)c(F)cn1)C2=O [Example 63, (S)-2-(1-(5-fluoro-4-methoxypyridin-2-yl)ethyl)-7-((2-(methylamino)-1H-imidazol-1-yl)methyl)-5-(1H-pyrazol-5-yl)-3,4-dihydroisoquinolin-1(2H)-one] | 0.01 to 1 µM |
| 0.01 to 1 µM | 0.01 to 1 µM | CNc1nccn1Cc1cc2c(c(-c3cn(C)nc3C(F)(F)F)c1)CCN(Cc1cc(OC)c(F)cn1)C2=O [Example 64, 2-((5-fluoro-4-methoxypyridin-2-yl)methyl)-5-(1-methyl-3-(trifluoromethyl)-1H-pyrazol-4-yl)-7-((2-(methylamino)-1H-imidazol-1-yl)methyl)-3,4-dihydroisoquinolin-1(2H)-one] | 0.01 to 1 µM |
